Assays:
[1] = target: T1, Ectonucleotide pyrophosphatase/phosphodiesterase family member 1 (Rattus norvegicus, UniProt Q924C3); experiment: Competitive-inhibition of Wistar rat NPP1 using p-Nph-5'-TMP as substrate measured after 5 mins by UPLC method
T1 sequence (Q924C3 whole entry): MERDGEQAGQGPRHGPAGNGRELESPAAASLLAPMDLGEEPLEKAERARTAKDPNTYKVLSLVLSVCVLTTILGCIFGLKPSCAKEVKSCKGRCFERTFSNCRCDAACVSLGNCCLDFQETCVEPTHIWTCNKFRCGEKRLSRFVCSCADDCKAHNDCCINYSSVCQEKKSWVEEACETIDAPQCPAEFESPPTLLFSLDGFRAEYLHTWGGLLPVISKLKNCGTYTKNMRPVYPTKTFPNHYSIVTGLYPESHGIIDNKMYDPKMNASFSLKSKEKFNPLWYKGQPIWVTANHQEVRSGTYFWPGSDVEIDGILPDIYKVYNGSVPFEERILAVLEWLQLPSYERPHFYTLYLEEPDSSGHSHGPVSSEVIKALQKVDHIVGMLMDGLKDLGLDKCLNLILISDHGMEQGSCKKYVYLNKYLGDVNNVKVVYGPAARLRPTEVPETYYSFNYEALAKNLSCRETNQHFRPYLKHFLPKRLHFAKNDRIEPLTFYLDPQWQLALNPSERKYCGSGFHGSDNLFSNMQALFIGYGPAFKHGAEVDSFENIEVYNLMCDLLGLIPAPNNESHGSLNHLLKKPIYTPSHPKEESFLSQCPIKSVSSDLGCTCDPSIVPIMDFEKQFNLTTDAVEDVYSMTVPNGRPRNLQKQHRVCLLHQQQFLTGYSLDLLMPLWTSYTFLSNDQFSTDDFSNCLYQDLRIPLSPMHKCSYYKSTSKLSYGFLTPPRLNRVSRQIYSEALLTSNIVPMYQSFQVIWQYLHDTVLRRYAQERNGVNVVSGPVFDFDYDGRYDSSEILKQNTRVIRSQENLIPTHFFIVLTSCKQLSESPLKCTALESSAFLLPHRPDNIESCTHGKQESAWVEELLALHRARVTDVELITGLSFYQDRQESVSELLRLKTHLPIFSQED

[2] = target: T2, Ectonucleotide pyrophosphatase/phosphodiesterase family member 1 (Homo sapiens, UniProt P22413); experiment: Competitive-inhibition of recombinant human N-terminal His-tagged soluble NPP1 (Val191 to Leu591 residues) expressed in mouse NSO cells using ATP as substrate after 30 mins by capillary electrophoresis method
T2 sequence (P22413 whole entry): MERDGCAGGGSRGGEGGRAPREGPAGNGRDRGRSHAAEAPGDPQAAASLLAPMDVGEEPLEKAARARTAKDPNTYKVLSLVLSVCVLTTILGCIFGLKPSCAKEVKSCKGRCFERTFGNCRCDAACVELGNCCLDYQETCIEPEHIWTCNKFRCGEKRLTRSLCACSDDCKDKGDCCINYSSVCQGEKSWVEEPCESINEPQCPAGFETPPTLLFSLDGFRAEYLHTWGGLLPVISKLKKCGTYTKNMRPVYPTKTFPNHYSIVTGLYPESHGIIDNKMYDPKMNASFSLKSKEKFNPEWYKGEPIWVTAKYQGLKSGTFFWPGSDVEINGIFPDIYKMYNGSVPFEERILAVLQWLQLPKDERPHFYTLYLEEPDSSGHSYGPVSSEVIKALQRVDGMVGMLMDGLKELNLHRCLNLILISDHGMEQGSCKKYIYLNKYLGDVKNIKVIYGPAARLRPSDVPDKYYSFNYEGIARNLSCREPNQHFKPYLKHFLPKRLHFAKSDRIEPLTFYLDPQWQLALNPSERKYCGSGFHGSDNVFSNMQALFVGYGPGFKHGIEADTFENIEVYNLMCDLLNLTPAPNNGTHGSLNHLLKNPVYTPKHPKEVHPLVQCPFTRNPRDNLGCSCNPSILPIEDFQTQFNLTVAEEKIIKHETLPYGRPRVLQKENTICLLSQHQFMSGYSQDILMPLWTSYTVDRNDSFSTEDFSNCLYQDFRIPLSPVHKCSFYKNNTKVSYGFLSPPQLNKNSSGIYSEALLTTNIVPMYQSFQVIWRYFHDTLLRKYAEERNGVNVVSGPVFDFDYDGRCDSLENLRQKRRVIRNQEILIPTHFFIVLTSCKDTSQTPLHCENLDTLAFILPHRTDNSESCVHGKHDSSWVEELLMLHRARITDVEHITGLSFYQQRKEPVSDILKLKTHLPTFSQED

[3] = target: T2, Ectonucleotide pyrophosphatase/phosphodiesterase family member 1; experiment: Competitive-inhibition of recombinant human NPP1 expressed in HEK293 cell membranes using p-Nph-5'-TMP as substrate pretreated for 10 mins followed by substrate addition and measured after 60 mins by capillary electrophoresis method
[4] = target: T2, Ectonucleotide pyrophosphatase/phosphodiesterase family member 1; experiment: Inhibition of recombinant human NPP1 expressed in COS7 cell membranes using p-Nph-5'-TMP as substrate pretreated for 10 mins followed by substrate addition and measured after 30 mins
[5] = target: T1, Ectonucleotide pyrophosphatase/phosphodiesterase family member 1; experiment: Inhibition of NPP1 in Wistar rat C6 cells using [gamma-32P]ATP as substrate pretreated for 30 mins followed by substrate addition and measured after 90 mins by TLC analysis; format: cell-based
[6] = target: T2, Ectonucleotide pyrophosphatase/phosphodiesterase family member 1; experiment: Noncompetitive-inhibition of recombinant human NPP1 expressed in HEK293 cell membranes using p-Nph-5'-TMP as substrate pretreated for 10 mins followed by substrate addition and measured after 60 mins by capillary electrophoresis method
[7] = target: T2, Ectonucleotide pyrophosphatase/phosphodiesterase family member 1; experiment: Uncompetitive-inhibition of recombinant human N-terminal His-tagged soluble NPP1 (Val191 to Leu591 residues) expressed in mouse NSO cells using ATP as substrate after 30 mins by capillary electrophoresis method
[8] = target: T2, Ectonucleotide pyrophosphatase/phosphodiesterase family member 1; experiment: Uncompetitive-inhibition of recombinant human N-terminal His-tagged soluble NPP1 (Val191 to Leu591 residues) expressed in mouse NSO cells using p-Nph-5'-AMP as substrate after 30 mins by capillary electrophoresis method
[9] = target: T2, Ectonucleotide pyrophosphatase/phosphodiesterase family member 1; experiment: Uncompetitive-inhibition of recombinant human N-terminal His-tagged soluble NPP1 (Val191 to Leu591 residues) expressed in mouse NSO cells using ATP as substrate by capillary electrophoresis method
[10] = target: T2, Ectonucleotide pyrophosphatase/phosphodiesterase family member 1; experiment: Uncompetitive-inhibition of recombinant human N-terminal His-tagged soluble NPP1 (Val191 to Leu591 residues) expressed in mouse NSO cells using p-Nph-5'-TMP as substrate after 15 mins by capillary electrophoresis method
[11] = target: T2, Ectonucleotide pyrophosphatase/phosphodiesterase family member 1; experiment: Inhibition of recombinant human NPP1 expressed in COS7 cell membranes using p-Nph-5'-TMP as substrate pretreated for 10 mins followed by substrate addition and measured after 30 mins by spectrophotometric method
[12] = target: T1, Ectonucleotide pyrophosphatase/phosphodiesterase family member 1; experiment: Mixed-inhibition of Wistar rat NPP1 using p-Nph-5'-TMP as substrate measured after 5 mins by UPLC method

Nc1ncnc2c1ncn2[C@@H]1O[C@H](COP(=O)(O)OP(=O)(O)OP(=O)(O)O)[C@@H](OC(=O)c2ccc(C(=O)c3ccccc3)cc2)[C@H]1O
Ki [1]: 20.5 µM | Ki [2]: 14.6 µM | Ki [3]: 2.96 µM

CSc1nc(N)c2ncn([C@@H]3O[C@H](COP(=O)(O)OP(=O)(O)OP(=O)(O)O)[C@@H](O)[C@H]3O)c2n1
Ki [1]: 20.5 µM | Ki [2]: 21.3 µM

Nc1ncnc2c1ncn2[C@@H]1O[C@H](COP(=O)(O)CP(=O)(O)OP(=O)(O)O)[C@@H](O)[C@H]1O [DIPHOSPHOMETHYLPHOSPHONIC ACID ADENOSYL ESTER]
Ki [1]: 2.2 µM

CCC(Oc1ccc(C)cc1)c1nnc(SCC(=O)Nc2nc3ccccc3s2)o1 (centres undefined)
IC50 [4]: 1.9 to 5.5 µM

Cc1nc(/N=N/c2ccc(S(=O)(=O)O)cc2S(=O)(=O)O)c(COP(=O)(O)O)c(C=O)c1O
IC50 [5]: 12 µM

Nc1ncnc2c1ncn2[C@@H](C=O)O[C@@H](C=O)COP(=O)(O)OP(=O)(O)O
Ki [6]: 3.42 µM

CSc1nc(N)c2ncn([C@@H]3O[C@H](COP(=O)(O)OP(=O)(O)O)[C@@H](O)[C@H]3O)c2n1
Ki [2]: 23.7 µM

Nc1ncnc2c1ncn2[C@@H](C=O)O[C@@H](C=O)COP(=O)(O)OP(=O)(O)OP(=O)(O)O
Ki [7]: 6.96 µM | Ki [8]: 5.08 µM | Ki [1]: 9.8 µM | Ki [9]: 6.82 µM | Ki [10]: 4.09 µM

COc1cc2cc(-n3cc(C)c4ccccc43)n3c4ccccc4c(C)c3c2cc1OC
IC50 [11]: 0.36 to 2.81 µM

Nc1ncnc2c1ncn2[C@@H]1O[C@H](COP(=O)(O)CP(=O)(O)O)[C@@H](O)[C@H]1O [PHOSPHOMETHYLPHOSPHONIC ACID ADENOSYL ESTER]
Ki [12]: 9.6 µM | Ki [2]: 24.3 µM

Cc1ccc(C(=O)Nc2ccc(S(=O)(=O)O)c3cc(S(=O)(=O)O)cc(S(=O)(=O)O)c23)cc1NC(=O)c1cccc(NC(=O)Nc2cccc(C(=O)Nc3cc(C(=O)Nc4ccc(S(=O)(=O)O)c5cc(S(=O)(=O)O)cc(S(=O)(=O)O)c45)ccc3C)c2)c1 [SURAMIN]
IC50 [5]: 72 µM
